Data from US5726177A, “Indole-derived arylpiperazines as ligands for 5HT1 -like, 5HT1B and 5HT1D receptors” (Pierre Fabre Medicament, priority 1993, dated 1998).
Where a name gives a salt, the structure may show the parent alone. Read-outs that look alike come from different tables or passages of the source.

Assays:
5-HT1D receptors = experiment: Affinity for 5-HT1D receptors (3H-5HT binding, sheep caudate membranes); details: for Ratio 1A/1D (ratio of the IC50 values for the 5HT1A and 5HT1D receptors): selectivity 5-HT1D over 5-HT1A; for IC50: sheep caudate nuclei membranes, 3H-5HT, 25° C., 30 min
Description: STUDY OF THE AFFINITY FOR 5-HT1D RECEPTORS
This study is carried out according to the technique described by Pauwells et al. (Biochem. Pharmacol, 46, 535-538, 1993).
Preparation of the membranes
Sheep brains are removed in the local abattoir and transported in ice. The caudate nuclei are removed, weighed and homogenized with a Polytron for 20 sec (speed 6-7) in 20 volumes of Tris-HCl 50 mM, pH 7.7. The homogenate is centrifuged for 10 min at 48,000 g with an L5 50E centrifuge (Beckman).
The pellet, taken up in 20 volumes of Tris-HCl 50 mm, pH 7.7, is placed in a water bath at 37° C. for 10 min and then recentrifuged for 10 min at 48,000 g. The pellet then obtained is immediately frozen in fractions containing 0.5g of tissue.
The pellet is defrosted and homogenized with a Dounce in 80 volumes of Tris-HCl 50 mM, pH 7.7, containing 4 mM CaCl2, 10 μM of pargyline and 0.1% of ascorbic acid.
Affinity is produced at 25° C. by incubating for 30 min:
0.1 ml of buffer or 10 μM, as final concentration, of sumatriptan, in order to obtain the non-specific binding
0.1 ml of 3H-5HT (15 to 30 Ci:mM, New England Nuclear France).
The incubation is brought to an end by rapid filtration through GF/B filters and rinsing with 3 times 3 [illegible] ice-cold buffer, using a harvester manufactured by Brandel which makes it possible [illegible] to filter [illegible]samples. The filters are introduced into vials containing [illegible]ml of [illegible] [illegible] scintillant (Packard) and the radioactivity measured with a Tri-carb 4640 counter (Packard). The IC50 (concentration which inhibits the specific affinity by 50%) is determined graphically.

5-HT1A = biological target: T1, 5-HT1A (Rattus norvegicus, UniProt P19327); experiment: Affinity for 5-HT1A receptors (method of Peroutka); type: binding
T1 construct: from tissue; host or cells: rat frontal cortex (from the title of the cited method)
T1 sequence (P19327 1-422): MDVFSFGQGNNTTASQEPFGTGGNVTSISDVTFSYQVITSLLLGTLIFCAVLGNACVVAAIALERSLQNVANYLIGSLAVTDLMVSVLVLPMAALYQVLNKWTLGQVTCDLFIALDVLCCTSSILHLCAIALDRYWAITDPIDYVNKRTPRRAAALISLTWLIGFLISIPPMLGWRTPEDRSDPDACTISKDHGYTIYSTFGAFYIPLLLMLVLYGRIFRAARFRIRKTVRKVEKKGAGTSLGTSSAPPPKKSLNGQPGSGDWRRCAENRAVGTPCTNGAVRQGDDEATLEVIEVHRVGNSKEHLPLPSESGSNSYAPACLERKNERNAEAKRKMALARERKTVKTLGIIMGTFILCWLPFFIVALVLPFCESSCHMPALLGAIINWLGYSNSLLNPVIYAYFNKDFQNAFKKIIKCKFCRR
Description: The affinities of the various products which form part of this invention for 5HT1A and 5HT1B receptors were measured according to the techniques described in:
Peroutka S. J. Pharmacological differentiation and characterization of 5HT1A, 5HT1B and 5HT1C binding sites in rat frontal cortex. J. Neurochem., 45, 529-540, 1986.

[1] = rat frontal cortex (Peroutka method), read-out: IC50 5-HT1A mean

Structure (SMILES)	Ratio 1A/1D (ratio of the IC50 values for the 5HT1A and 5HT1D receptors) (5-HT1D receptors)	IC50 (5-HT1D receptors)	IC50 (5-HT1A; [1])	IC50 (5-HT1A)
NCCc1c[nH]c2ccc(OCC(=O)N3CCN(c4ccc(NC(=O)c5ccccc5)cc4)CC3)cc12 [Example 4, N-[4-(4-{2-[3-(2-Aminoethyl)-1H-indol-5-yloxy]acetyl}piperazin-1-yl)phenyl]benzamide hydrochloride]	75	1 nM	75 nM	
CS(=O)(=O)N(c1ccc(N2CCN(C(=O)COc3ccc4[nH]cc(CCN)c4c3)CC2)cc1)S(C)(=O)=O [Example 6, N-[4-(4-{2-[3-(2-Aminoethyl)-1H-indol-5-yloxy]acetyl}piperazin-1-yl)phenyl](methanesulfonyl)methanesulfonamide hydrochloride]	18	4.3 nM	79 nM	
CCS(=O)(=O)Nc1ccc(N2CCN(C(=O)COc3ccc4[nH]cc(CCN)c4c3)CC2)cc1 [Example 7, N-[4-(4-{2-[3-(2-Aminoethyl)-1H-indol-5-yloxy]acetyl}piperazin-1-yl)phenyl]ethanesulfonamide hydrochloride]	28	1.6 nM	44 nM	
NCCc1c[nH]c2ccc(OCC(=O)N3CCN(c4ccc(NS(=O)(=O)c5cccs5)cc4)CC3)cc12 [Example 8, Thiophene-2-{N-[4-(4-{2-[3-(2-aminoethyl)-1H-indol-5-yloxy]acetyl}piperazin-1-yl)phenyl]sulfonamide hydrochloride]	22	1.2 nM	26 nM	
NCCc1c[nH]c2ccc(OCC(=O)N3CCN(c4ccc(N(S(=O)(=O)c5cccs5)S(=O)(=O)c5cccs5)cc4)CC3)cc12 [Example 9, N-[4-(4-{2-[3-(2-Aminoethyl)-1H-indol-5-yl-oxy]acetyl}piperazin-1-yl)phenyl](thiophene-2-sulfonyl)-thiophene-2-sulfonamide hydrochloride]			38 nM	
Cc1noc(C)c1S(=O)(=O)Nc1ccc(N2CCN(C(=O)COc3ccc4[nH]cc(CCN)c4c3)CC2)cc1 [Example 10, 3,5-Dimethylisoxazole-4-{N-[4-(4-{2-[3-(2-aminoethyl)-1H-indol-5-yloxy]acetyl}-piperazin-1-yl)phenyl]sulfonamide hydrochloride]	20	1 nM	20 nM	
CCOC(=O)Nc1ccc(N2CCN(C(=O)COc3ccc4[nH]cc(CCN)c4c3)CC2)cc1 [Example 11, 2-[3-(2-Aminoethyl)-1H-indol-5-yloxy]-1-[4-(4-N-{ethoxycarbonyl}aminophenyl)piperazin-1-yl]-ethanone hydrochloride]	44	2.4 nM	105 nM	
NCCc1c[nH]c2ccc(OCC(=O)N3CCN(c4ccccc4[N+](=O)[O-])CC3)cc12 [Example 14, 2-[3-(2-Aminoethyl)-1H-indol-5-yloxy]-1-[4-(2-nitrophenyl)piperazin-1-yl)ethanone hydrochloride]	10	1 nM		9.5 nM
